Assay results published in PubChem BioAssay AID1963849 (Molecular Pharmacology Branch, DTP, NCI, 2024).
Several values for one entry are separate records, joined by “and”; a condition that tells them apart may be missing. Equal entries are not always repeated.

Test system: 299254-011-R-J1-PDC complex spheroid viability
Assay: Anticancer human tumor 299254-011-R-J1-PDC patient-derived melanoma cell line growth inhibition [POLQ]
Conditions: for viability, T/C: stronger effect = lower value; for IC50: curve of compound
Description: Multicellular complex tumor spheroid response to Polymerase (POL) inhibitors (novobiocin, ART-558, RP6685) in combination with a variety of drugs and investigational agents in selected tumor cell lines
The POL inhibitors (novobiocin, ART-558, and RP6685) were evaluated both individually and in combination with standard of care and investigational anticancer small molecules within a complex spheroid model of solid tumors. . Complex spheroids include a stromal component modeled by human endothelial cells (HUVEC) and fibroblasts modeled by human mesenchymal stem cells (MSCs). The concentration ranges selected for each drug and investigational agent were based upon clinically achievable concentrations if the clinical Cmax of the agent was known.
Compounds. The drugs and investigational agents: novobiocin (NSC847541), ART-558 (NSC835418), RP-6685 (NSC848927), peposertib (NSC802822), ceralasertib (NSC780249), elimusertib (NSC800525), camonsertib (NSC841442), AZD-1390 (NSC803789), olaparib (NSC753686), talazoparib (NSC767125), rucaparib (NSC756644), sotorasib (NSC818433), MRTX-1133 (NSC836407), SN-38 (NSC673596), topotecan (NSC609699), epotoside (NSC141540), doxorubicin (NSC123127), gemcitabine (NSC613327), 5-fluorouracil (NSC19893), paclitaxel (NSC125973), vemurafenib (NSC761431), MSA-2 (NSC828583), SN-011 (NSC837082), adavosertib (NSC754352), prexasertib (NSC758257), carboplatin (NSC241240) and oxaliplatin (NSC266046), were obtained from the National Cancer Institute (NCI) Developmental Therapeutics Program Chemical Repository (21). The FDA-approved anticancer drug set is available from the Developmental Therapeutics Program at https://dtp.cancer.gov/organization/dscb/obtaining/. […] The stock solutions were prepared in dimethyl sulfoxide (DMSO, Sigma-Aldrich, St. Louis, MO, cat. D2650), except for the platinum compounds which were prepared in saline (Quality Biological, Gaithersburg, MD, cat. 114-055-101), at 800-fold the tested concentration and stored at -70 degrees C prior to their use. All drugs and investigational agents were tested over a range starting from a high concentration at or near the clinical Cmax and decreasing in half-log increments. If the clinical Cmax for an agent had not been determined, the highest concentration tested was 10 microM, except for SN-38, which was tested at a high concentration of 1 microM.
Cell Culture. All cells were maintained in an incubator at 37 degrees C and 5% CO2 with 95% humidity. The PDC lines were cultured according to standard operating procedures established by the NCI PDMR (https://pdmr.cancer.gov). Table 3 of the manuscript, lists the cell lines along with the number of the three cell types plated to form the mct-spheroids and media for tumor cell growth. After thawing, all PDC lines, except 997537-175-T-J1-PDC and 415267-285-R-J2-PDC, were cultured in Matrigel-coated flasks prepared with a working solution of 1X Ham's F-12 nutrient mix, without supplementation (Thermo Fisher Scientific, cat. 11765054), 100 U/mL penicillin-streptomycin (Thermo Fisher Scientific, cat. 15140122), and 2.5% Matrigel (Corning Inc., Corning, NY, cat. 354248) for the first three passages. The two PDC lines 997537-175-T-J1-PDC and 415267-285-R-J2-PDC were cultured on uncoated flasks. The 857933-349-R-J2-PDC line was cultured in 6C/Colon 1B media containing advanced DMEM/F-12 (Thermo Fisher Scientific, cat. 12634028), 10 mM HEPES (Thermo Fisher Scientific, cat. 15630080), 1X GlutaMAX supplement (Thermo Fisher Scientific, cat. 35050061), 0.1 mg/mL primocin (InvivoGen, San Diego, CA, cat. ant-pm-2), 10% defined fetal bovine serum, heat inactivated (HyClone Laboratories Inc., Logan, UT, cat. SH30070.03HI), 50% L-WRN conditioned media (ATCC, cat. CRL-3276), 1.25 mM N-Acetyl-L-cysteine (Sigma-Aldrich, cat. A9165), 10 mM nicotinamide (Sigma-Aldrich, cat. N0636), 1X B-27 supplement (Thermo Fisher Scientific, cat. 17504044), 1X N-2 supplement (Thermo Fisher Scientific, cat. […]
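Also: spheroids exposed to drugs for one week before measurement.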
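For viability, T/C in this document: percent viability relative to DMSO vehicle control taken as 100%.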

## Nc1ccn(C2OC(CO)C(O)C2(F)F)c(=O)n1 (stereo unspecified)
Compound 0.0316 µM
  viability, T/C: 73.4% and 61.2% and 61%
Compound 0.1 µM
  viability, T/C: 37.7% and 47.8% and 35.1%
Compound 0.316 µM
  viability, T/C: 42.1% and 40.7% and 40.9%
Compound 1 µM
  viability, T/C: 40.9% and 50.7% and 30.8%
Compound 3.16 µM
  viability, T/C: 37.9% and 48.4% and 41.9%
Compound 10 µM
  viability, T/C: 41.2% and 42.5% and 33.8%
  IC50: 70.8 nM and 78.8 nM and 53 nM

## O=C(c1cc(Cc2n[nH]c(=O)c3ccccc23)ccc1F)N1CCN(C(=O)C2CC2)CC1
Compound 0.0316 µM
  viability, T/C: 94.4% and 93.8% and 100%
Compound 0.1 µM
  viability, T/C: 101% and 83.9% and 107%
Compound 0.316 µM
  viability, T/C: 98.9% and 81.6% and 109%
Compound 1 µM
  viability, T/C: 97.1% and 85.2% and 89.6%
Compound 3.16 µM
  viability, T/C: 98.6% and 94.9% and 100%
Compound 10 µM
  viability, T/C: 88.7% and 80.5% and 96.8%
  IC50: > 10000 nM

## O=C(Nc1ccc(O)c(NS(=O)(=O)c2ccc(F)cc2)c1)c1ccc(-c2ccccc2)cc1
Compound 0.0316 µM
  viability, T/C: 93.4% and 116% (2×)
Compound 0.1 µM
  viability, T/C: 99.8% and 93% and 108%
Compound 0.316 µM
  viability, T/C: 110% and 99.2% and 96.8%
Compound 1 µM
  viability, T/C: 91.6% and 92.6% and 111%
Compound 3.16 µM
  viability, T/C: 111% and 88.9% and 86.7%
Compound 10 µM
  viability, T/C: 52% and 54.8% and 46.6%
  IC50: > 10000 nM and 9060 nM
